Values after ≈ are worked out from the molar mass of the structure shown. Active and inactive are the calls of the source. The rule behind the calls is not given here.
Assays:
[1] = test system: Mycobacterium tuberculosis; assay: Antitubercular activity against Mycobacterium tuberculosis H37Rv (ATCC 25618) incubated for […] by MABA assay; type: functional
[2] = Tmax in ICR mouse at 25 micromol/kg, po measured after 24 hrs by LC-MS/MS analysis; type: ADME, organism-based; details: in vivo, dose 25 µmol/kg
[3] = Cmax in ICR mouse at 25 micromol/kg, po measured after 24 hrs by LC-MS/MS analysis; type: ADME, organism-based; details: in vivo, dose 25 µmol/kg
[4] = AUC (0 to 24 hrs) in ICR mouse at 25 micromol/kg, po by LC-MS/MS analysis; type: ADME, organism-based; details: ICR, in vivo, dose 25 µmol/kg
[5] = Elimination half life in ICR mouse at 25 micromol/kg, po measured after 24 hrs by LC-MS/MS analysis; type: ADME, organism-based; details: in vivo, dose 25 µmol/kg, read-out: beta t1/2 (converted)
[6] = MRT in ICR mouse at 25 micromol/kg, po measured after 24 hrs by LC-MS/MS analysis; type: ADME, organism-based; details: in vivo, dose 25 µmol/kg
[7] = Oral bioavailability in ICR mouse at 25 micromol/kg measured after 24 hrs by LC-MS/MS analysis; type: ADME, organism-based; details: ICR, in vivo, 25 µmol/kg
[8] = AUC (0 to 8 hrs) in ICR mouse at 5 micromol/kg, iv by LC-MS/MS analysis; type: ADME, organism-based; details: ICR, in vivo, dose 5 µmol/kg
[9] = Drug concentration in ICR mouse plasma at 5 micromol/kg, iv measured after 5 mins by LC-MS/MS analysis; type: ADME, organism-based; details: dose 5 µmol/kg
[10] = Elimination half life in ICR mouse at 5 micromol/kg, iv measured after 24 hrs by LC-MS/MS analysis; type: ADME, organism-based; details: in vivo, dose 5 µmol/kg, read-out: beta t1/2 (converted)
[11] = MRT in ICR mouse at 5 micromol/kg, iv measured after 24 hrs by LC-MS/MS analysis; type: ADME, organism-based; details: in vivo, dose 5 µmol/kg
[12] = Volume of distribution at steady state in ICR mouse at 5 micromol/kg, iv measured after 24 hrs by LC-MS/MS analysis; type: ADME, organism-based; details: in vivo, dose 5 µmol/kg, read-out: Vdss
[13] = Total plasma clearance in ICR mouse at 5 micromol/kg, iv measured after 24 hrs by LC-MS/MS analysis; type: ADME, organism-based; details: dose 5 µmol/kg
[14] = Protein binding in mouse plasma assessed as unbound fraction incubated for 24 hrs by equilibrium dialysis based LC/MS analysis; type: ADME, cell-free
[15] = molecular target: T1, Decaprenylphosphoryl-beta-D-ribose oxidase (Mycobacterium tuberculosis (strain ATCC 25618 / H37Rv), UniProt P9WJF1); assay: Inhibition of recombinant Mycobacterium tuberculosis DprE1 expressed in Escherichia coli measured after 120 mins by Amplex Red/peroxidase coupled assay
T1 sequence (P9WJF1 whole entry): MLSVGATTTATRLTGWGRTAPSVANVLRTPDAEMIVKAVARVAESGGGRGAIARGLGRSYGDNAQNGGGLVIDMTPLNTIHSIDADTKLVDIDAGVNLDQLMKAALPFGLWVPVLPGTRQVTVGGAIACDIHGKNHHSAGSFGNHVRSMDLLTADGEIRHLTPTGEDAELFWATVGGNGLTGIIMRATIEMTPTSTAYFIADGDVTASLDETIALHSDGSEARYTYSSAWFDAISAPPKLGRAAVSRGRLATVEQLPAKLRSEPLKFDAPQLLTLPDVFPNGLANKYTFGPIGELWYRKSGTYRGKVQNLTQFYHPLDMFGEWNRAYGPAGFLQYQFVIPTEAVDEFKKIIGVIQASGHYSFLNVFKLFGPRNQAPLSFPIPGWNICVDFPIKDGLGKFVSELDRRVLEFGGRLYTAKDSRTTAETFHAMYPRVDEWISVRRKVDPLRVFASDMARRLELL

[16] = Aqueous solubility of the compound in PBS buffer at pH 6.82 incubated for 4 hrs by HPLC analysis; type: physicochemical
HepG2 = assay: Cytotoxicity against human HepG2 cells at 30 uM incubated for 48 hrs by CCK8 assay; type: toxicity, cell-based; details: hepg2, 48 h
[17] = test system: Mycobacterium tuberculosis; assay: Antitubercular activity against Mycobacterium tuberculosis H37Rv infected in BALB/c mouse assessed as log reduction in colony formation in lung at 50 mg/kg, po administered for 6 weeks; type: functional
[18] = molecular target: T2, Decaprenylphosphoryl-beta-D-ribose oxidase (Mycobacterium tuberculosis (strain ATCC 25618 / H37Rv)) (UniProt P9WJF1); assay: Time-dependent covalent inhibition of recombinant Mycobacterium tuberculosis DprE1 expressed in Escherichia coli by Amplex Red/peroxidase coupled assay
T2 sequence (whole entry): T1 sequence (P9WJF1 whole entry)

[19] = Metabolic stability in NADPH-fortified human liver microsomes assessed as CYP450-mediated stability incubated for 120 mins by LC/MS analysis; type: ADME, Microsome; details: 2 h
[20] = Metabolic stability in NADPH-fortified mouse liver microsomes assessed as CYP450-mediated stability incubated for 120 mins by LC/MS analysis; type: ADME, Microsome; details: 2 h
[21] = Cytotoxicity against mouse hepatic stellate cells at 30 uM incubated for 48 hrs by CCK8 assay; type: toxicity, cell-based; details: hepatic stellate cell

Work on `CN(CC#CCN1CCOCC1)c1nc(=O)c2cc(C(F)(F)F)cc([N+](=O)[O-])c2s1` yielded an MIC [1] of 0.106 µM (≈ 0.0469 µg/mL).

For `CN(CC#Cc1ccc2c(c1)OCO2)c1nc(=O)c2cc(C(F)(F)F)cc([N+](=O)[O-])c2s1`, the MIC [1] was 0.145 µM (≈ 0.0672 µg/mL).

With `CN(CC#Cc1ccccc1F)c1nc(=O)c2cc(C(F)(F)F)cc([N+](=O)[O-])c2s1` the MIC [1] was 0.011 µM (≈ 0.00481 µg/mL).

In the case of `COc1cccc(C#CCN(C)c2nc(=O)c3cc(C(F)(F)F)cc([N+](=O)[O-])c3s2)c1`, the MIC [1] is reported as 0.093 µM (≈ 0.0418 µg/mL).

With `CN(C/C=C\C1CC1)c1nc(=O)c2cc(C(F)(F)F)cc([N+](=O)[O-])c2s1` the MIC [1] was 0.042 µM (≈ 0.0162 µg/mL).

In the case of `CN(C)Cc1ccc(C#CCN(C)c2nc(=O)c3cc(C(F)(F)F)cc([N+](=O)[O-])c3s2)cc1`, the MIC [1] is reported as 0.47 µM (≈ 0.224 µg/mL).

Compound `CN(Cc1nnc(-c2ccccc2)o1)c1nc(=O)c2cc(S(C)(=O)=O)cc([N+](=O)[O-])c2s1` has an MIC [1] of 0.03 µM (≈ 0.0142 µg/mL).

For `CN1CCN(CC#CCN(C)c2nc(=O)c3cc(C(F)(F)F)cc([N+](=O)[O-])c3s2)CC1`, the MIC [1] was 1.92 µM (≈ 0.876 µg/mL).

With `CN(CC#CC(O)CN1CCCCC1)c1nc(=O)c2cc(C(F)(F)F)cc([N+](=O)[O-])c2s1` (stereo not given) the MIC [1] was 1.05 µM (≈ 0.493 µg/mL).

In the case of `CN(CC#Cc1ccc(F)cc1)c1nc(=O)c2cc(C(F)(F)F)cc([N+](=O)[O-])c2s1`, the MIC [1] is reported as 0.013 µM (≈ 0.00569 µg/mL).

`CN(CC#Cc1cncs1)c1nc(=O)c2cc(C(F)(F)F)cc([N+](=O)[O-])c2s1` gave an MIC [1] of 0.129 µM (≈ 0.055 µg/mL).

Compound `CN(CC#Cc1ccccc1)c1nc(=O)c2cc(C(F)(F)F)cc([N+](=O)[O-])c2s1` has an MIC [1] of 0.007 µM (≈ 0.00294 µg/mL), a Tmax [2] of 0.9 h and a Cmax [3] of 1.29 µM. The AUC(0-t) [4] was 5.16 µM·h, the half-life [5] was 2.95 h and the MRT [6] was 4.35 h. It also gave a bioavailability [7] of 4.49%, an AUC(0-t) [8] of 23.2 µM·h and a concentration at 5 min [9] of 13.5 µM. The half-life [10] was 1.77 h, the MRT [11] was 2.72 h and the Vd [12] was 0.25 L/kg. The clearance [13] was 1.5 mL/min/kg, the Fu [14] was 0.25% and the IC50 [15] was 0.023 µM. For the same compound, the solubility at 4 h [16] was 0.8 µg/mL (≈ 1.91 µM), the Activity (HepG2) was “Non-Toxic” and the Activity [17] was <1 log10CFU. For the same compound, the TDI [18] was “Active”, the Stability [19] was “Stable” and the Stability [20] was “Stable”. The Activity [21] was “Non-Toxic”.

For `CN(C)CCc1ccc(C#CCN(C)c2nc(=O)c3cc(C(F)(F)F)cc([N+](=O)[O-])c3s2)cc1`, the MIC [1] was 1.01 µM (≈ 0.495 µg/mL).

For `CN(CC#CC1CCCCC1)c1nc(=O)c2cc(C(F)(F)F)cc([N+](=O)[O-])c2s1`, the MIC [1] was 0.002 µM (≈ 0.000851 µg/mL), the IC50 [15] was 0.018 µM and the TDI [18] was “Active”.

`CN(CC#CCN1CC2(COC2)C1)c1nc(=O)c2cc(C(F)(F)F)cc([N+](=O)[O-])c2s1` showed an MIC [1] of 0.423 µM (≈ 0.192 µg/mL).

With `CN(CC#CCN1CC[S+]([O-])CC1)c1nc(=O)c2cc(C(F)(F)F)cc([N+](=O)[O-])c2s1` the MIC [1] was 1.05 µM (≈ 0.498 µg/mL).

In the case of `C#CCN(C)c1nc(=O)c2cc(C(F)(F)F)cc([N+](=O)[O-])c2s1`, the MIC [1] is reported as 1.4 µM (≈ 0.479 µg/mL).

`CN(CC#Cc1ccc2c(c1)OCCO2)c1nc(=O)c2cc(C(F)(F)F)cc([N+](=O)[O-])c2s1` gave an MIC [1] of 0.092 µM (≈ 0.0439 µg/mL).

`CN(CC#CCN1CCSC1)c1nc(=O)c2cc(C(F)(F)F)cc([N+](=O)[O-])c2s1` showed an MIC [1] of 0.029 µM (≈ 0.0129 µg/mL).

For `CN(CC#CCN1CCCCC1)c1nc(=O)c2cc(C(F)(F)F)cc([N+](=O)[O-])c2s1`, the MIC [1] was 0.127 µM (≈ 0.0559 µg/mL).

`CN(CC#Cc1cnsc1)c1nc(=O)c2cc(C(F)(F)F)cc([N+](=O)[O-])c2s1` showed an MIC [1] of 0.03 µM (≈ 0.0128 µg/mL).

`CN1CCC(O)(C#CCN(C)c2nc(=O)c3cc(C(F)(F)F)cc([N+](=O)[O-])c3s2)CC1` showed an MIC [1] of 16.9 µM (≈ 7.72 µg/mL).
